Measured values from patent US20260258420A1, “COMPOSITIONS AND METHODS FOR THE TREATMENT OF HUMAN PAPILLOMAVIRUS-DRIVEN CANCERS” (priority 2023, published 2026).

Tests used:
[1] = system: 16 HPV-positive HNSCC and cervical squamous cancer cell lines; test: High-throughput drug screen (HTDS), cell death by AOC_LD, HPV-positive cell lines; type: cell-based
Description: The concordance correlation coefficient was computed to assess the reproducibility of the normalized growth rates of the 2 replicates. […] A chi-square test was applied to compare drug classification and the cluster membership. The Fisher exact test was applied to compare mutations status (wild-type and mutant) and drugs' response data (sensitive and resistant).
The effects of 864 unique drugs from 51 classes was tested in 16 HPV-positive and 17 HPV-negative HNSCC and cervical squamous cancer cell lines (Table 2) that were characterized previously (Kaiu, et al., Oncotarget 2017; 8(49):86369-83).

[2] = system: HPV-negative HNSCC cells (HN31, UMSCC4, and MDA886LN) with RB1 knockdown; test: Apoptosis after RB1 depletion in HPV-negative cells (annexin V, immunoblot); type: cell-based
Description: FIG. 4B, HPV-negative HNSCC cells (HN31, UMSCC4, and MDA886LN) were infected with distinct, lentivirus-based shRNAs (Sh2, Sh4, and Sh6) to stably knock down the expression of RB1 or were treated with control (Ctrl) shRNA. Cells were then treated with 300 nmol/L alisertib for 24 hours before annexin V-PE/7AAD staining and analysis with flow cytometry. The bar graph represents the ratio of apoptosis (late plus early) among different groups. Values are the means±the standard deviations for 3 independent experiments. *P<0.05; **P<0.005; unpaired, 2-tailed Student t-test. FIG. 4C, cells from FIG. 4B were treated with 300 nmol/L alisertib for 24 hours before lysis and immunoblotting with the indicated antibodies. […] Representative results from 3 independent experiments are shown. Cl, cleaved; Fl, full length; GAPDH, glyceraldehyde 3-phosphate dehydrogenase; Ox, overexpression.
To measure apoptosis, TUNEL staining was performed with an APO-BRDU Kit (BD Biosciences, San Jose, CA) and annexin V/propidium iodide staining with an FITC Annexin V Apoptosis Detection Kit PE (eBioscience, San Diego, CA) as described previously (Kalu, et al., Cancer Lett 2018; 431:64-72). […] Data were acquired with a 3-laser, 10-color Gallios flow cytometer (Beckman Coulter, Brea, CA) and analyzed using Kaluza software, RRID:SCR_016182 (Beckman Coulter, Brea, CA). Assays were performed in triplicate, and each test was completed twice on different days.
The lentiviral-based shRNA (GIPZ plasmid) used to knock down human RB1 expression was purchased from Horizon Discovery (Waterbeach, United Kingdom). On the basis of the knockdown efficiency of Rb1 protein expression in 3 HPV-negative cell lines (HN31, UMSCC4, and MDA88 6LN), shRblclones were selected (#2, #4, and #6) for this study. […] The mature antisense sequences were as follows: 5′-[sequence]-3′ (SEQ ID NO:1) (shRb1 #2), 5′-[sequence]-3′ (SEQ ID NO:2) (shRb1 #4), and 5′-[sequence]-3′ (SEQ ID NO:3) (shRb1 #6). To generate lentivirus-expressing shRNA for RB1, HEK 293T cells were transfected with GIPZ-non-silence (for the vector control virus) and GIPZ-shRB1 with jetPEI transfection reagent (RRID:CVCL_0063). The medium was changed 24 hours after transfection and then collected every 48 hours thereafter. The collected lentivirus-containing medium was centrifuged and then filtered (0.45 μM).

[3] = system: HN31 cells stably transfected with an E7 plasmid; test: Apoptosis in HPV-negative cells overexpressing E7; type: cell-based; conditions: 300 nmol/L, 24 hours
Description: Each data point represents 1 cell line. Box plots show the median pRb […] levels and 95% confidence intervals across all cell lines in the category. t-test P=0.0097. FIG. 4B, HPV-negative HNSCC cells (HN31, UMSCC4, and MDA886LN) were infected with distinct, lentivirus-based shRNAs (Sh2, Sh4, and Sh6) to stably knock down the expression of RB1 or were treated with control (Ctrl) shRNA. Cells were then treated with 300 nmol/L alisertib for 24 hours before annexin V-PE/7AAD staining and analysis with flow cytometry. The bar graph represents the ratio of apoptosis (late plus early) among different groups. Values are the means±the standard deviations for 3 independent experiments. *P<0.05; **P<0.005; unpaired, 2-tailed Student t-test. FIG. 4C, cells from FIG. 4B were treated with 300 nmol/L alisertib for 24 hours before lysis and immunoblotting with the indicated antibodies. FIG. 4D-E, HN31 cells were stably transfected with an E7 plasmid and treated with 300 nmol/L alisertib for 24 hours before lysis and immunoblotting with (FIG. 4D) the indicated antibodies or (FIG. 4E) annexin-PE staining to measure apoptosis. Values are the means±the standard deviations for 3 independent experiments. ** P≤0.01; *** P≤0.001. FIG. 4F, two HPV-positive cell lines were transfected with 10 nmol/L siRNA oligonucleotides specific to E7 or with control oligonucleotides. […]

[4] = system: HN31 and MDA886LN cells expressing RB1 shRNA; test: Apoptosis with TRIP13 overexpression, RB1-knockdown HPV-negative cells; type: cell-based; conditions: 300 nmol/L
Description: FIG. 5A, two HPV-positive cell lines (CASKI and SIHA) were transfected with BUB1B or MAD2L1 siRNA and then treated for 24 hours with 300 nmol/L alisertib before lysis and immunoblotting with the indicated antibodies. FIG. 5B, TRIP13 was transiently overexpressed (Ox) in 2 HPV-positive cell lines that were treated for 24 hours with 300 nmol/L alisertib before lysis and immunoblotting for the indicated proteins. FIG. 5C, HPV-positive cell lines with TRIP13 overexpression were treated with 300 nmol/L alisertib for 32 hours and then stained for annexin V-PE/7AAD staining and analysis with flow cytometry to measure apoptosis. The bar graph represents the ratio of apoptosis (late plus early) among different groups. Values are the means±the standard deviations for 3 independent experiments. ** P≤0.01; *** P≤0.001; unpaired, 2-tailed Student t-test. FIG. 5D, HN31 (left panel) and MDA886LN (right panel) cells expressing RB1 or control shRNA were transfected with a plasmid for TRIP13. After 24 hours, cells were treated with 300 nmol/L alisertib and then lysed for immunoblotting. Cl, cleaved; Fl, full length; GAPDH, glyceraldehyde 3-phosphate dehydrogenase.
In normal cells, prolonged mitosis resulting from Mad2 overexpression can lead to G1 arrest or mitotic cell death, so it is unclear why Mad2 overexpression is tolerated in HPV-positive cancers. […]

[5] = system: 2 HPV-positive cell lines transfected with MAD2L1 plasmid; test: Apoptosis with Mad2 overexpression; type: cell-based; conditions: 100 nmol/L, 24 hours
Description: FIG. 6A, mRNA expressions of MAD2L1, BUBIB and TRIP13 in HNSCC HPV-positive (n=70) and HPV-negative (n=447) HNSCC patient tumors from the TCGA (left panel) and in HPV-positive (n=51) and HPV-negative OPSCC [(n=28), right panel]. FIG. 6B, FIG. 6C, TRIP13 was depleted by siRNA in HPV-positive and negative cell lines. Cells were then treated with 100 nmol/L alisertib for 36 hours before being subjected to lysis and immunoblotting with the indicated antibodies (FIG. 6B) or annexin-PE staining to measure apoptosis using flow cytometry (FIG. 6C). FIG. 6D, FIG. 6E, the MAD2L1 plasmid was transiently transfected into 2 HPV-positive cell lines that were then treated with 100 nmol/L alisertib for 24 hours before being subjected to lysis and immunoblotting for the indicated proteins (FIG. 6D) or annexin-PE staining to measure apoptosis (FIG. 6E). Values are the means±the standard deviations for 3 independent experiments (** P≤0.01). Cl, cleaved; Fl, full length; GAPDH, glyceraldehyde 3-phosphate dehydrogenase; Ox, overexpression. FIG. 6F, model of the synthetic lethality between TRIP13 and Aurora kinase A. HPV-positive, Rb deficient cancer cells rely on both TRIP13 and Aurora kinase activity to maintain mitotic fidelity, such that their combined inhibition will lead to a prolonged spindle assembly checkpoint (SAC), irreversible mitotic arrest, and cancer cell death. […]

[6] = human clinical trials; cited from earlier work
[7] = RB1 shRNA, 300 nmol/L, 24 hours

COc1cc(Nc2ncc3c(n2)-c2ccc(Cl)cc2C(c2c(F)cccc2OC)=NC3)ccc1C(=O)O [ALISERTIB, alisertib]
HPV positive Resistant (number of cell lines) ([1]; resistant = AOC_LD 0): 6
HPV positive Sensitive (number of cell lines) ([1]; sensitive = AOC_LD greater than 0): 10
cleaved PARP levels ([2]; RB1 depleted by transient transfection): increase in cleaved PARP levels
apoptosis (cleaved caspase-3 and cleaved PARP) in cells with reduced Rb levels [2, 7]: induced significant apoptosis
increase in annexin V-positive apoptotic cells when Rb was depleted [2, 7]: approximately 3 fold
apoptosis in control cells with detectable Rb protein levels ([2]; control shRNA, 300 nmol/L, 24 hours): did not induce apoptosis
apoptosis (cleaved caspase-3, PARP, annexin V) [3]: selectively enhanced apoptosis
apoptosis with TRIP13 overexpression [4]: reduced apoptosis
apoptosis with Mad2 overexpression [5]: enhanced apoptosis
common toxicities [6]: anemia, thrombocytopenia, and neutropenia
